Data: patent US20080171718A1, “Methods and Compositions for Treating Cancer Using BCL-2 Antisense Oligomers, Tyrosine Kinase Inhibitors, and Chemotherapeutic Agents” (priority 2006, published 2008)
“Also recorded” adds a separate entry of the source.

System: A549 human lung cancer model
Assay: Tumor growth delay in A549 human lung cancer model in SCID mice
Assay type: in vivo
Details: for effect of the tyrosine kinase inhibitor in triplet therapy with Bcl-2 antisense and cytotoxic chemotherapeutic (comparison, interaction): A549 model, triplet with Genasense and Taxol/Abraxane
Method: Genasense® (G3139 by Genta, Bcl-2 inhibitor, also referred to in the Figures as “OBL”), Abraxane® (by Abraxis, paclitaxel), and Taxol® (by Bristol Myers Squibb, paclitaxel) were submitted for evaluation in combination with tyrosine kinase inhibitors against an A549 human lung cancer model in severe combined immune deficient (SCID) mice. Ten treatment groups having 10 mice per group were analyzed for tumor growth delay. G3139, Abraxane, and Taxol were administered via intravenous (IV) injection, and tyrosine kinase inhibitors were administered via oral gavage (PO).
The mice were injected with 100 μl tumor cells subcutaneously (SC). […] On the 15th day, treatment cycles of 5 days on and 2 days off began for a series of 3 cycles. During treatment, the mice were weighed twice daily. Tumor volume estimation (mm^3) was made in accordance with the formula (a^2×b/2), where “a” is the smallest diameter and “b” is the largest diameter. All procedures were completed in accordance with established animal care protocols.
Subconfluent cells were harvested by using 0.23% trypsin-EDTA (HyClone, Logan, Utah) and were counted using the trypan blue assay technique. Cells (99% viability) were re-suspended at the concentration of 10×10^6 cells/100 μl of sterile saline.
G3139 was prepared fresh each treatment day from a refrigerated stock solution of 30 mg/ml using sterile saline as the vehicle; while tyrosine kinase inhibitors in capsule form were brought up to the desired concentration using 10% DMSO and 90% sterile saline as the vehicle. Taxol (Infusion Solutions, Tucson, Az.) was prepared fresh each treatment day from a refrigerated stock solution of 6 mg/ml in Cremaphor EL/EtOH using sterile saline as the vehicle. Abraxane was prepared from a frozen stock of 5 mg/ml with the diluent of sterile saline. G3139 (20 mg/kg) was administered twice during each 5-day treatment cycle, on day 3 and on day 5. […] G3139 was administered at a volume of 0.1 ml using a 27 gauge needle (Becton Dickinson). Abraxane and Taxol were administered at a volume of 0.2 ml using a 27 gauge needle. […]

| Structure (SMILES) | effect of the tyrosine kinase inhibitor in triplet therapy with Bcl-2 antisense and cytotoxic chemotherapeutic (comparison, interaction) | tumor growth / tumor growth inhibition compared to the negative control (tumor volume versus days post implantation) (FIG. 1-3, single agent, SC A549 tumors, 3 cycles of 5 days on/2 days off from day 15, Taxol/Abraxane 13.4 mg/kg IV day 1, Gleevec 100 mg/kg, Sutent/Nexavar 40 mg/kg PO daily) |
| --- | --- | --- |
| C#Cc1cccc(Nc2ncnc3cc(OCCOC)c(OCCOC)cc23)c1 [Tarceva, erlotinib] | does not significantly enhance the efficacy | – |
| CNC(=O)c1cc(Oc2ccc(NC(=O)Nc3ccc(Cl)c(C(F)(F)F)c3)cc2)ccn1 [Nexavar, sorafenib] | comparable to Sutent in the triplet therapy and more effective than Gleevec; also recorded: unexpectedly enhanced interaction | minor and substantially similar tumor growth inhibition |
